Assay results reported in patent US9695155B2, “Herbicidal substituted pyrimidinyloxy benzene compounds” (E. I. DU PONT DE NEMOURS AND COMPANY, priority 2013, dated 2017).

Columns and labels:
Italian ryegrass [1] = test: Test C postemergence; format: in vivo, Lolium multiflorum; details: Lolium multiflorum, post-emergence
Method in brief: (§1)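 Seeds are planted in blended loam soil and sand and treated preemergence, while seedlings in a peat moss/vermiculite medium receive postemergence sprays at 2 to 18 cm height. All plants stay in the greenhouse for 13 to 15 days before visual comparison with controls on a 0–100 scale.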

waterhemp = test: Test C preemergence; format: in vivo, Amaranthus rudis; details: Amaranthus tuberculatus, pre-emergence
Method in brief: as §1

chickweed = test: Test C postemergence; format: in vivo, Stellaria media; details: Stellaria media, post-emergence
Method in brief: as §1

velvetleaf = test: Test C postemergence; format: in vivo, Abutilon theophrasti; details: Abutilon theophrasti, post-emergence
Method in brief: as §1

galium = test: Test A postemergence; format: in vivo, Galium aparine; details: 0 to 100 scale where 0 is no effect and 100 is complete control
Method in brief: (§2)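 Visual 0–100 rating (100 = complete control) taken about 10 d post-treatment relative to untreated checks. Preemergence: directed soil spray on sown loam/sand pots. Postemergence: seedlings 2–10 cm, 1–2 leaf. Non-phytotoxic solvent formulation with surfactant.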

blackgrass = test: Test A postemergence; format: in vivo, Alopecurus myosuroides; details: 0 to 100 scale where 0 is no effect and 100 is complete control
Method in brief: as §2

pigweed [2] = test: Test C postemergence; format: in vivo, Amaranthus retroflexus; details: Amaranthus retroflexus, post-emergence
Method in brief: as §1

kochia = test: Test C postemergence; format: in vivo, Kochia scoparia; details: Bassia scoparia, post-emergence
Method in brief: as §1

Italian ryegrass [3] = test: Test A preemergence; format: in vivo, Lolium multiflorum; details: 0 to 100 scale where 0 is no effect and 100 is complete control
Method in brief: as §2

ragweed = test: Test A preemergence; format: in vivo, Ambrosia elatior; details: 0 to 100 scale where 0 is no effect and 100 is complete control
Method in brief: as §2

large (Lg) crabgrass = test: Test C preemergence; format: in vivo, Digitaria sanguinalis; details: Digitaria sanguinalis, pre-emergence
Method in brief: as §1

Italian ryegrass [4] = test: Test A postemergence; format: in vivo, Lolium multiflorum; details: 0 to 100 scale where 0 is no effect and 100 is complete control
Method in brief: as §2

corn = test: Test A postemergence; format: in vivo, Zea mays; details: 0 to 100 scale where 0 is no effect and 100 is complete control
Method in brief: as §2

yellow nutsedge = test: Test C preemergence; format: in vivo, Cyperus esculentus; details: Cyperus, pre-emergence
Method in brief: as §1

pigweed [5] = test: Test C preemergence; format: in vivo, Amaranthus retroflexus; details: Amaranthus retroflexus, pre-emergence
Method in brief: as §1

giant foxtail = test: Test A postemergence; format: in vivo, Setaria faberii; details: 0 to 100 scale where 0 is no effect and 100 is complete control
Method in brief: as §2

For `N#Cc1cccc(Oc2ncc(Cl)cn2)c1-n1cc(SC(F)(F)F)cn1` [Compound 134, 3-[(5-chloro-2-pyrimidinyl)oxy]-2-[4-(trifluoromethylthio)-1-pyrazolyl]benzonitrile], the pest or weed control at 16 g/ha (Italian ryegrass [1]; 16 g ai/ha, postemergence, 0 is no effect, 100 is complete control, read-out: Plant response rating (0 to 100), Ryegrass, Italian) was 10%, the pest or weed control at 125 g/ha (Italian ryegrass [1]; 125 g ai/ha, postemergence, visual rating, scale 0 to 100 (0 no effect, 100 complete control), read-out: Plant response rating, Ryegrass, Italian) was 0% and the pest or weed control at 62 g/ha (Italian ryegrass [1]; Postemergence, 62 g ai/ha, scale 0 to 100 (0 no effect, 100 complete control), read-out: Plant response rating, Ryegrass, Italian) was 5%. For the same compound, the pest or weed control at 16 g/ha (waterhemp; 16 g ai/ha, preemergence, scale 0 to 100 (0 no effect, 100 complete control), read-out: Waterhemp plant response rating) was 85%, the pest or weed control at 62 g/ha (waterhemp; 62 g ai/ha, preemergence, scale 0 (no effect) to 100 (complete control), read-out: Waterhemp plant response rating) was 100% and the pest or weed control at 125 g/ha (waterhemp; 125 g ai/ha, preemergence, scale 0 (no effect) to 100 (complete control), read-out: Waterhemp plant response rating) was 100%. It also gave a pest or weed control at 31 g/ha (waterhemp; Preemergence, 31 g ai/ha, scale 0 to 100, 0 no effect, 100 complete control, read-out: Plant response rating, Waterhemp) of 100%, a pest or weed control at 16 g/ha (chickweed; 16 g ai/ha, postemergence, 0 is no effect, 100 is complete control, read-out: Plant response rating (0 to 100), Chickweed) of 45% and a pest or weed control at 125 g/ha (chickweed; 125 g ai/ha, postemergence, visual rating, scale 0 to 100 (0 no effect, 100 complete control), read-out: Plant response rating, Chickweed) of 80%. The pest or weed control at 62 g/ha (chickweed; Postemergence, 62 g ai/ha, scale 0 to 100 (0 no effect, 100 complete control), read-out: Plant response rating, Chickweed) was 55%, the pest or weed control at 16 g/ha (velvetleaf; 16 g ai/ha, postemergence, 0 is no effect, 100 is complete control, read-out: Plant response rating (0 to 100), Velvetleaf) was 30% and the pest or weed control at 125 g/ha (velvetleaf; 125 g ai/ha, postemergence, visual rating, scale 0 to 100 (0 no effect, 100 complete control), read-out: Plant response rating, Velvetleaf) was 55%. The pest or weed control at 62 g/ha (velvetleaf; Postemergence, 62 g ai/ha, scale 0 to 100 (0 no effect, 100 complete control), read-out: Plant response rating, Velvetleaf) was 50%, the “Galium plant response rating” value (galium; 125 g ai/ha) was 100 and the “Plant response rating, Galium” value (galium; 500 g ai/ha) was 100. For the same compound, the “Blackgrass plant response rating” value (blackgrass; 125 g ai/ha) was 30, the “Plant response rating, Blackgrass” value (blackgrass; 500 g ai/ha) was 90 and the pest or weed control at 16 g/ha (pigweed [2]; 16 g ai/ha, postemergence, 0 is no effect, 100 is complete control, read-out: Plant response rating (0 to 100), Pigweed) was 75%. The pest or weed control at 125 g/ha (pigweed [2]; 125 g ai/ha, postemergence, visual rating, scale 0 to 100 (0 no effect, 100 complete control), read-out: Plant response rating, Pigweed) was 85%, the pest or weed control at 62 g/ha (pigweed [2]; Postemergence, 62 g ai/ha, scale 0 to 100 (0 no effect, 100 complete control), read-out: Plant response rating, Pigweed) was 85% and the pest or weed control at 16 g/ha (kochia; 16 g ai/ha, postemergence, 0 is no effect, 100 is complete control, read-out: Plant response rating (0 to 100), Kochia) was 75%. For the same compound, the pest or weed control at 125 g/ha (kochia; 125 g ai/ha, postemergence, visual rating, scale 0 to 100 (0 no effect, 100 complete control), read-out: Plant response rating, Kochia) was 95%, the pest or weed control at 62 g/ha (kochia; Postemergence, 62 g ai/ha, scale 0 to 100 (0 no effect, 100 complete control), read-out: Plant response rating, Kochia) was 95% and the “Plant response rating, Ryegrass, Italian” value (Italian ryegrass [3]; 125 g ai/ha) was 20. For the same compound, the “Ryegrass, Italian plant response rating” value (Italian ryegrass [3]; 500 g ai/ha) was 40, the “Plant response rating, Ragweed” value (ragweed; 125 g ai/ha) was 60 and the “Ragweed plant response rating” value (ragweed; 500 g ai/ha) was 80. For the same compound, the pest or weed control at 16 g/ha (large (Lg) crabgrass; 16 g ai/ha, preemergence, scale 0 to 100 (0 no effect, 100 complete control), read-out: Crabgrass, Large plant response rating) was 60%, the pest or weed control at 62 g/ha (large (Lg) crabgrass; 62 g ai/ha, preemergence, scale 0 (no effect) to 100 (complete control), read-out: Crabgrass, Large plant response rating) was 98% and the pest or weed control at 125 g/ha (large (Lg) crabgrass; 125 g ai/ha, preemergence, scale 0 (no effect) to 100 (complete control), read-out: Crabgrass, Large plant response rating) was 100%. The pest or weed control at 31 g/ha (large (Lg) crabgrass; Preemergence, 31 g ai/ha, scale 0 to 100, 0 no effect, 100 complete control, read-out: Plant response rating, Crabgrass, Large) was 98%, the “Ryegrass, Italian plant response rating” value (Italian ryegrass [4]; 125 g ai/ha) was 50 and the “Plant response rating, Ryegrass, Italian” value (Italian ryegrass [4]; 500 g ai/ha) was 100. For the same compound, the “Plant response rating, Corn” value (corn; 500 g ai/ha) was 60, the plant injury at 125 g/ha (corn; Zea mays, post-emergence, 240 h, 125 g ai/ha, read-out: Corn plant response rating) was 40% and the pest or weed control at 16 g/ha (yellow nutsedge; 16 g ai/ha, preemergence, scale 0 to 100 (0 no effect, 100 complete control), read-out: Nutsedge, Yellow plant response rating) was 0%. For the same compound, the pest or weed control at 62 g/ha (yellow nutsedge; 62 g ai/ha, preemergence, scale 0 (no effect) to 100 (complete control), read-out: Nutsedge, Yellow plant response rating) was 0%, the pest or weed control at 125 g/ha (yellow nutsedge; 125 g ai/ha, preemergence, scale 0 (no effect) to 100 (complete control), read-out: Nutsedge, Yellow plant response rating) was 10% and the pest or weed control at 31 g/ha (yellow nutsedge; Preemergence, 31 g ai/ha, scale 0 to 100, 0 no effect, 100 complete control, read-out: Plant response rating, Nutsedge, Yellow) was 0%. It also gave a pest or weed control at 16 g/ha (pigweed [5]; 16 g ai/ha, preemergence, scale 0 to 100 (0 no effect, 100 complete control), read-out: Pigweed plant response rating) of 100%, a pest or weed control at 62 g/ha (pigweed [5]; 62 g ai/ha, preemergence, scale 0 (no effect) to 100 (complete control), read-out: Pigweed plant response rating) of 100% and a pest or weed control at 125 g/ha (pigweed [5]; 125 g ai/ha, preemergence, scale 0 (no effect) to 100 (complete control), read-out: Pigweed plant response rating) of 100%. For the same compound, the pest or weed control at 31 g/ha (pigweed [5]; Preemergence, 31 g ai/ha, scale 0 to 100, 0 no effect, 100 complete control, read-out: Plant response rating, Pigweed) was 100%, the “Foxtail, Giant plant response rating” value (giant foxtail; 125 g ai/ha) was 70 and the “Plant response rating, Foxtail, Giant” value (giant foxtail; 500 g ai/ha) was 100.
